Measurements reported in US11312719B2, “9-substituted amino triazolo quinazoline derivatives as adenosine receptor antagonists, pharmaceutical compositions and their use” (Merck Sharp & Dohme Corp., priority 2018, dated 2022).

Experiments:
[1] = biological target: human A2A receptors (Homo sapiens (Human), UniProt P29274); assay: A2A antagonism in cAMP cell-based assay (LANCE cAMP, HEK293); conditions: HEK293 cells expressing human A2A receptor
How it was run: (§1)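 HEK293 cells expressing human A2A or A2B, in HBSS/5 mM HEPES/200 nM rolipram, were preincubated with compound (0.5–10,000 nM, 0.25% DMSO) 30 min at 37° C. Adenosine was then added from 300 nM (A2A) or 600 nM (A2B) solution for 30 min.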

[2] = biological target: human A2B receptors (Homo sapiens (Human), UniProt P29275); assay: A2B antagonism in cAMP cell-based assay (LANCE cAMP, HEK293); conditions: HEK293 cells expressing human A2B receptor
Sequence of human A2B receptors (P29275 whole entry): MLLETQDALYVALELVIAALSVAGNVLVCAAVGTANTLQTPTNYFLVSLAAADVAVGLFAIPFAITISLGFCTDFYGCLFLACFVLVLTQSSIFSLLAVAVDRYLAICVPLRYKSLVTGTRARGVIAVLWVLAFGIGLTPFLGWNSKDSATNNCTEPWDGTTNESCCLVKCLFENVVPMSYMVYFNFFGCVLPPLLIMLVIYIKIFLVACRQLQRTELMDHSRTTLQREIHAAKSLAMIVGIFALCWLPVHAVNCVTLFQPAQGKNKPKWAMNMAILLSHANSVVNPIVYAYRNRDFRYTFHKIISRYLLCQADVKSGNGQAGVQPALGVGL
How it was run: as §1

Sequence of human A2A receptors (P29274 whole entry): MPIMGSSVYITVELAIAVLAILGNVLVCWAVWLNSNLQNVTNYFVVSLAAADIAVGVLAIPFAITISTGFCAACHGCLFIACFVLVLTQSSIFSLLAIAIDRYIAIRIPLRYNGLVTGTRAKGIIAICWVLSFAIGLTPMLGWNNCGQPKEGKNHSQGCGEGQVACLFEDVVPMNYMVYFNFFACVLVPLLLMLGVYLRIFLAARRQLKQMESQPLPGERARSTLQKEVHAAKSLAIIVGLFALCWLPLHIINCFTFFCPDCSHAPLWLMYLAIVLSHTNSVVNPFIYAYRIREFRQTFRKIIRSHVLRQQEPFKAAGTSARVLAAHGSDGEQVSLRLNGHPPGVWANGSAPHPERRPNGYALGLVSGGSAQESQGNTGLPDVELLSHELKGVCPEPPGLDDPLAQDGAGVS

Row | IC50 [1] [nM] | IC50 [2] [nM] | SMILES
1 | 3.2 | 21.3 | CC(O)C(C)(C)n1cc(N2CCC[C@@H](c3nc4c5cc(F)cc(F)c5nc(N)n4n3)C2)cn1 (single isomer, unassigned) [Example 246, (R or S)-3-(4-((R)-3-(5-amino-7,9-difluoro-[1,2,4]triazolo [1,5-c]quinazolin-2-yl)piperidin-1-yl)-1H-pyrazol-1-yl)-3-methylbutan-2-ol]
2 | 0.4 | 27.5 | Cc1nn(C(C)C(C)O)cc1N1CC(C)CC(c2nc3c4cc(F)cc(F)c4nc(N)n3n2)C1 (single isomer, unassigned) [Example 215, (2S,3S or 2R,3R)-3-(4-((3S,5R or 3R,5S)-3-(5-amino-7,9-difluoro-[1,2,4]triazolo[1,5-c]quinazolin-2-yl)-5-methylpiperidin-1-yl)-3-methyl-1H-pyrazol-1-yl)butan-2-ol]
3 | 0.6 | 11.5 | Cc1nn(C(C)(C)CO)cc1N1CC(C)CC(c2nc3c4cc(F)cc(F)c4nc(N)n3n2)C1 (single isomer, unassigned) [Example 178, 2-(4-((3S,5R or 3R,5S)-3-(5-amino-7,9-difluoro-[1,2,4]triazolo[1,5-c]quinazolin-2-yl)-5-methylpiperidin-1-yl)-3-methyl-1H-pyrazol-1-yl)-2-methylpropan-1-ol]
4 | 2.6 | 50.7 | COc1cc2nc(N)n3nc([C@@H]4CCCN(c5cnn(C(C)(C)C(C)O)c5)C4)nc3c2cc1F (single isomer, unassigned) [Example 243, (S or R)-3-(4-((R)-3-(5-amino-9-fluoro-8-methoxy-[1,2,4]triazolo[1,5-c]quinazolin-2-yl)piperidin-1-yl)-1H-pyrazol-1-yl)-3-methylbutan-2-ol]
